These results are taken from patent publication US20250262201A1, “COMPOUNDS AND METHODS USEFUL FOR STABILIZING PHENYLALANINE HYDROXYLASE MUTATIONS” (Agios Pharmaceuticals, Inc., priority 2022, published 2025).

Structures are written as SMILES.

The assay has as its target T1, human PAH with the R408W mutation (Homo sapiens, UniProt P00439, R408W).
T1 construct: expressed in transfected cells
T1 sequence (P00439 1-452 R408W): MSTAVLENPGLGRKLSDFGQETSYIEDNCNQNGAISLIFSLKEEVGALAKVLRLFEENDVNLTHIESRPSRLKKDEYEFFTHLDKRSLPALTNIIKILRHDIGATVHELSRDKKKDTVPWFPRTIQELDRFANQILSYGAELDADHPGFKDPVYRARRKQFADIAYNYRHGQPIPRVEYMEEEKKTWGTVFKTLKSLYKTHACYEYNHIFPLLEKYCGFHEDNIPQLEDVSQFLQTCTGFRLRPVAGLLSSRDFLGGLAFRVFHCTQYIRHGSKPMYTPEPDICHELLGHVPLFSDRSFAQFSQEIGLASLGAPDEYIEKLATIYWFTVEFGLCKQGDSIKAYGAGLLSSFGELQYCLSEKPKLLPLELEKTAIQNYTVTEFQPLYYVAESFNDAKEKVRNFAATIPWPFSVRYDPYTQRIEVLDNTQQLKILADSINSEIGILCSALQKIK
As to the kind of experiment: Cell Based Phenylalanine Flux Assay. The conditions noted are these: A375 cells expressing human R408W PAH; 24 hrs compound incubation; 13C-Tyrosine by LC-MS; average where tested multiple times; read-out: AC50.
As a reminder, the AC50 is the midpoint of the concentration-response curve, whichever way the signal moves. Regarding `O=C(c1cnn2cc(Cl)ccc12)N1CCc2[nH]cnc2[C@H]1c1cc2ccccc2cn1` [Example 467, (R)-(6-chloropyrazolo[1,5-a]pyridin-3-yl)(4-(isoquinolin-3-yl)-6,7-dihydro-1H-imidazo[4,5-c]pyridin-5(4H)-yl)methanone], the AC50 is less than 500 nM. Regarding `CN(C)CCc1ccc2c(C(=O)N3CCc4[nH]cnc4[C@H]3c3cc4ccccc4cn3)cnn2c1` [Example 468, (R)-(6-(2-(dimethylamino)ethyl)pyrazolo[1,5-a]pyridin-3-yl)(4-(isoquinolin-3-yl)-6,7-dihydro-1H-imidazo[4,5-c]pyridin-5(4H)-yl)methanone], the AC50 was less than 500 nM. Turning to `O=C(c1nnc(-c2cnccn2)o1)N1CCc2[nH]cnc2[C@H]1c1cc2ccccc2cn1` [Example 469, (R)-(4-(isoquinolin-3-yl)-6,7-dihydro-1H-imidazo[4,5-c]pyridin-5(4H)-yl)(5-(pyrazin-2-yl)-1,3,4-oxadiazol-2-yl)methanone], the AC50 was less than 500 nM. With `CN(C)c1ccc2c(C(=O)N3CCc4[nH]cnc4[C@H]3c3cc4ccccc4cn3)cnn2c1` [Example 470, (R)-(6-(dimethylamino)pyrazolo[1,5-a]pyridin-3-yl)(4-(isoquinolin-3-yl)-6,7-dihydro-1H-imidazo[4,5-c]pyridin-5(4H)-yl)methanone] the figure was less than 500 nM.

Turning to `O=C(c1nnc(-c2ccncn2)o1)N1CCc2[nH]cnc2[C@H]1c1cc2ccccc2cn1` [Example 471, (R)-(4-(isoquinolin-3-yl)-6,7-dihydro-1H-imidazo[4,5-c]pyridin-5(4H)-yl)(5-(pyrimidin-4-yl)-1,3,4-oxadiazol-2-yl)methanone], the AC50 is less than 500 nM. With `Cc1cc(-c2nnc(C(=O)N3CCc4[nH]cnc4[C@H]3c3cc4ccccc4cn3)o2)nn1C` [Example 472, (R)-(5-(1,5-dimethyl-1H-pyrazol-3-yl)-1,3,4-oxadiazol-2-yl)(4-(isoquinolin-3-yl)-6,7-dihydro-1H-imidazo[4,5-c]pyridin-5(4H)-yl)methanone] the figure was less than 500 nM; with `O=C(c1nnc(-c2ncccn2)o1)N1CCc2[nH]cnc2[C@H]1c1cc2ccccc2cn1` [Example 473, (R)-(4-(isoquinolin-3-yl)-6,7-dihydro-1H-imidazo[4,5-c]pyridin-5(4H)-yl)(5-(pyrimidin-2-yl)-1,3,4-oxadiazol-2-yl)methanone], less than 500 nM; with `O=C(c1cnn2cc(N3CCC(F)CC3)ccc12)N1CCc2[nH]cnc2[C@H]1c1cc2ccccc2cn1` [Example 474, (R)-(6-(4-fluoropiperidin-1-yl)pyrazolo[1,5-a]pyridin-3-yl)(4-(isoquinolin-3-yl)-6,7-dihydro-1H-imidazo[4,5-c]pyridin-5(4H)-yl)methanone], 1000 to 5000 nM.

As for `O=C(c1cnn2cc(-c3cccnc3)ccc12)N1CCc2[nH]cnc2[C@H]1c1cc2ccccc2cn1` [Example 475, (R)-(4-(isoquinolin-3-yl)-6,7-dihydro-1H-imidazo[4,5-c]pyridin-5(4H)-yl)(6-(pyridin-3-yl)pyrazolo[1,5-a]pyridin-3-yl)methanone], the concentration at half-maximal activity (AC50) is less than 500 nM.

Consider `O=C(c1cnn2cc(-c3ccncn3)ccc12)N1CCc2[nH]cnc2[C@H]1c1cc2ccccc2cn1` [Example 476, (R)-(4-(isoquinolin-3-yl)-6,7-dihydro-1H-imidazo[4,5-c]pyridin-5(4H)-yl)(6-(pyrimidin-4-yl)pyrazolo[1,5-a]pyridin-3-yl)methanone], for which the AC50 is less than 500 nM.

With `O=C(c1cnn2cc(-c3cnccn3)ccc12)N1CCc2[nH]cnc2[C@H]1c1cc2ccccc2cn1` [Example 477, (R)-(4-(isoquinolin-3-yl)-6,7-dihydro-1H-imidazo[4,5-c]pyridin-5(4H)-yl)(6-(pyrazin-2-yl)pyrazolo[1,5-a]pyridin-3-yl)methanone], the AC50 was less than 500 nM. As for `O=C(c1cnn2cc(N3CCC(O)CC3)ccc12)N1CCc2[nH]cnc2[C@H]1c1cc2ccccc2cn1` [Example 478, (R)-(6-(4-hydroxypiperidin-1-yl)pyrazolo[1,5-a]pyridin-3-yl)(4-(isoquinolin-3-yl)-6,7-dihydro-1H-imidazo[4,5-c]pyridin-5(4H)-yl)methanone], the AC50 was in the range of 500 to 1000 nM. Next, `Cc1cccc(-c2ccc3c(C(=O)N4CCc5[nH]cnc5[C@H]4c4cc5ccccc5cn4)cnn3c2)n1` [Example 479, (R)-(4-(isoquinolin-3-yl)-6,7-dihydro-1H-imidazo[4,5-c]pyridin-5(4H)-yl)(6-(6-methylpyridin-2-yl)pyrazolo[1,5-a]pyridin-3-yl)methanone]: less than 500 nM; `Cc1ncccc1-c1ccc2c(C(=O)N3CCc4[nH]cnc4[C@H]3c3cc4ccccc4cn3)cnn2c1` [Example 480, (R)-(4-(isoquinolin-3-yl)-6,7-dihydro-1H-imidazo[4,5-c]pyridin-5(4H)-yl)(6-(2-methylpyridin-3-yl)pyrazolo[1,5-a]pyridin-3-yl)methanone]: less than 500 nM; `Cn1ccc(-c2ccc3c(C(=O)N4CCc5[nH]cnc5[C@H]4c4cc5ccccc5cn4)cnn3c2)n1` [Example 481, (R)-(4-(isoquinolin-3-yl)-6,7-dihydro-1H-imidazo[4,5-c]pyridin-5(4H)-yl)(6-(1-methyl-1H-pyrazol-3-yl)pyrazolo[1,5-a]pyridin-3-yl)methanone]: less than 500 nM.

As for `O=C(c1cnn2cc(-c3ncccc3F)ccc12)N1CCc2[nH]cnc2[C@H]1c1cc2ccccc2cn1` [Example 482, (R)-(6-(3-fluoropyridin-2-yl)pyrazolo[1,5-a]pyridin-3-yl)(4-(isoquinolin-3-yl)-6,7-dihydro-1H-imidazo[4,5-c]pyridin-5(4H)-yl)methanone], the concentration at half-maximal activity (AC50) was less than 500 nM. With `O=C(c1cnn2cc(-c3ncccn3)ccc12)N1CCc2[nH]cnc2[C@H]1c1cc2ccccc2cn1` [Example 483, (R)-(4-(isoquinolin-3-yl)-6,7-dihydro-1H-imidazo[4,5-c]pyridin-5(4H)-yl)(6-(pyrimidin-2-yl)pyrazolo[1,5-a]pyridin-3-yl)methanone] the figure was less than 500 nM. As for `O=C(c1cnn2cc(CN3CCOCC3)ccc12)N1CCc2[nH]cnc2[C@H]1c1cc2ccccc2cn1` [Example 484, (R)-(4-(isoquinolin-3-yl)-6,7-dihydro-1H-imidazo[4,5-c]pyridin-5(4H)-yl)(6-(morpholinomethyl)pyrazolo[1,5-a]pyridin-3-yl)methanone], the concentration at half-maximal activity (AC50) was less than 500 nM. With `O=C(c1cnn2cc(-c3ccccc3)ccc12)N1CCc2[nH]cnc2[C@H]1c1cc2ccccc2cn1` [Example 485, (R)-(4-(isoquinolin-3-yl)-6,7-dihydro-1H-imidazo[4,5-c]pyridin-5(4H)-yl)(6-phenylpyrazolo[1,5-a]pyridin-3-yl)methanone] the figure was less than 500 nM; with `O=C(c1cnn2cc(-c3ccncc3)ccc12)N1CCc2[nH]cnc2[C@H]1c1cc2ccccc2cn1` [Example 486, (R)-(4-(isoquinolin-3-yl)-6,7-dihydro-1H-imidazo[4,5-c]pyridin-5(4H)-yl)(6-(pyridin-4-yl)pyrazolo[1,5-a]pyridin-3-yl)methanone], less than 500 nM.

For the molecule `O=C(c1cnn2cc(-c3cncnc3)ccc12)N1CCc2[nH]cnc2[C@H]1c1cc2ccccc2cn1` [Example 487, (R)-(4-(isoquinolin-3-yl)-6,7-dihydro-1H-imidazo[4,5-c]pyridin-5(4H)-yl)(6-(pyrimidin-5-yl)pyrazolo[1,5-a]pyridin-3-yl)methanone], the AC50 is less than 500 nM.

`CN1CCN(Cc2ccc3c(C(=O)N4CCc5[nH]cnc5[C@H]4c4cc5ccccc5cn4)cnn3c2)CC1` [Example 488, (R)-(4-(isoquinolin-3-yl)-6,7-dihydro-1H-imidazo[4,5-c]pyridin-5(4H)-yl)(6-((4-methylpiperazin-1-yl)methyl)pyrazolo[1,5-a]pyridin-3-yl)methanone]: the AC50 was less than 500 nM.

Consider `O=C(c1cnn2cc(N3CCCC3)ccc12)N1CCc2[nH]cnc2[C@H]1c1cc2ccccc2cn1` [Example 489, (R)-(4-(isoquinolin-3-yl)-6,7-dihydro-1H-imidazo[4,5-c]pyridin-5(4H)-yl)(6-(pyrrolidin-1-yl)pyrazolo[1,5-a]pyridin-3-yl)methanone], for which the AC50 is less than 500 nM. Next, `Cc1nnc(C(=O)N2CC3(CC3)c3[nH]cnc3[C@H]2c2cc3ccccc3cn2)o1` [Example 490, (R)-(4′-(isoquinolin-3-yl)spiro[cyclopropane-1,7′-imidazo[4,5-c]pyridin]-5′(1′H,4′H,6′H)-yl)(5-methyl-1,3,4-oxadiazol-2-yl)methanone]: less than 500 nM; `Cc1ncoc1C(=O)N1CC2(CC2)c2[nH]cnc2[C@@H]1c1cc2ccccc2cn1` [Example 492, (S)-(4′-(isoquinolin-3-yl)spiro[cyclopropane-1,7′-imidazo[4,5-c]pyridin]-5′(1′H,4′H,6′H)-yl)(4-methyloxazol-5-yl)methanone]: greater than 5000 nM; `Cc1ncoc1C(=O)N1CC2(CC2)c2[nH]cnc2[C@H]1c1cc2ccccc2cn1` [Example 493, (R)-(4′-(isoquinolin-3-yl)spiro[cyclopropane-1,7′-imidazo[4,5-c]pyridin]-5′(1′H,4′H,6′H)-yl)(4-methyloxazol-5-yl)methanone]: less than 500 nM.

On to `C[C@@H]1CN(C(=O)c2nnc(-c3ccc(F)cn3)o2)[C@H](c2cc3ccccc3cn2)c2nc[nH]c21` [Example 494, (5-(5-fluoropyridin-2-yl)-1,3,4-oxadiazol-2-yl)((4R,7R)-4-(isoquinolin-3-yl)-7-methyl-6,7-dihydro-1H-imidazo[4,5-c]pyridin-5(4H)-yl)methanone], for which the AC50 fell in the range of 1000 to 5000 nM.
